Source: patent US20230159469A1, “NOVEL PHTHALAZINE DERIVATIVE HAVING ECTONUCLOEOTIDE PYROPHOSPHATASE/PHOSPHODIESTE RASE INHIBITORY ACTIVITY, AND USE THEREOF” (TXINNO BIOSCIENCE INC., priority 2020, published 2023)
Where a name gives a salt, the structure may show the parent alone.

Molecular target: T1, human recombinant ENPP1 (Homo sapiens, UniProt P22413)
T1 construct: purchased R & D systems
T1 sequence (P22413 1-925): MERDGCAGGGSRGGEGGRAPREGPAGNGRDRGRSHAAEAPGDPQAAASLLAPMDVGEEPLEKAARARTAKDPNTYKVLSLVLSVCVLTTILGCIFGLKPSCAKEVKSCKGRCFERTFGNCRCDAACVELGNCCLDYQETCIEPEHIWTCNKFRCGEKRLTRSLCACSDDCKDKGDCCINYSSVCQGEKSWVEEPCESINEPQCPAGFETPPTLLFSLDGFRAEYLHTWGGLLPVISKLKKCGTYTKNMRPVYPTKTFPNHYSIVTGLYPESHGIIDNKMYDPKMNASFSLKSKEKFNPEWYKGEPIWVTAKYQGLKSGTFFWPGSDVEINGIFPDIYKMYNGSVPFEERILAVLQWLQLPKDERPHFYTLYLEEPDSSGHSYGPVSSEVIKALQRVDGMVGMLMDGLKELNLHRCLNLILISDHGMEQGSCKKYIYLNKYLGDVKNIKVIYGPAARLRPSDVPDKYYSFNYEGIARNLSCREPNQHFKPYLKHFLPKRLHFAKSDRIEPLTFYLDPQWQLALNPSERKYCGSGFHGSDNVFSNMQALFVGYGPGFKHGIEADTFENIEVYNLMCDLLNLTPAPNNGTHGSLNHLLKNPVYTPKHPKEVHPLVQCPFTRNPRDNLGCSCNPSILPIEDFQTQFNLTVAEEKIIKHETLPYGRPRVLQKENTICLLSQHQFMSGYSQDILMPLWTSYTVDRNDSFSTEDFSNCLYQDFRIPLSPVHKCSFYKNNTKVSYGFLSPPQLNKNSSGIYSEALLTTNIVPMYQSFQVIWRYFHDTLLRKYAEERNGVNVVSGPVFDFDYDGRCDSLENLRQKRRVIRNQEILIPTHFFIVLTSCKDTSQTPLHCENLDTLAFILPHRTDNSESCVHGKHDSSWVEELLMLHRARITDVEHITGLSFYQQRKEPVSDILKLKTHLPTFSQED
Experiment: ENPP1 enzyme assay with cGAMP substrate (AMP-Glo luminescence)
Format: biochemical
Settings: human recombinant ENPP1 3 ng/reaction, cGAMP 5 μM, 37° C. 90 minutes, read-out: Enzymatic activity (ENPP1 IC50)
Procedure, shortened: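 Human ENPP1 hydrolysis of 5 μM cGAMP was run for 90 min at 37° C in 50 mM Tris pH 8.5, 250 mM NaCl, 0.5 mM CaCl2, 1 μM ZnCl2, 5% glycerol, 1% DMSO. AMP product was quantified by AMP-Glo luminescence; IC50 came from 3-parameter fits of % residual activity, averaged over at least two runs.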

SMILES | IC50
COc1cc2c(Cc3ccc(N(C)C(=O)OC(C)(C)C)cc3)n[nH]c(=O)c2cc1OC [Example 152, tert-butyl (4-((6,7-dimethoxy-4-oxo-3,4-dihydrophthalazin-1-yl)methyl)phenyl) (methyl) carbamate] | > 10 µM
COc1cc2c(Cc3ccc4c(c3)CCN4C(=O)OC(C)(C)C)nn(C)c(=O)c2cc1OC [Example 155] | > 10 µM
COc1cc2c(Cc3cccc(N)c3)n[nH]c(=O)c2cc1OC [Example 156, 4-(3-aminobenzyl)-6,7-dimethoxyphthalazin-1(2H)-one hydrochloride] | > 10 µM
COc1cc2c(Cc3cccc(N)c3)nn(C)c(=O)c2cc1OC [Example 157, 4-(3-aminobenzyl)-6,7-dimethoxy-2-methylphthalazin-1(2H)-one hydrochloride] | > 10 µM
Nc1ccc(Cc2n[nH]c(=O)c3ccccc23)cc1 [Example 158, 4-(4-aminobenzyl)-phthalazin-1(2H)-one hydrochloride] | > 10 µM
Cn1nc(Cc2ccc(N)cc2)c2ccccc2c1=O [Example 159, 4-(4-aminobenzyl)-2-methylphthalazin-1(2H)-one hydrochloride] | > 10 µM
COc1cc2c(Cc3ccc(N)cc3)n[nH]c(=O)c2cc1OC [Example 160, 4-(4-aminobenzyl)-6,7-dimethoxyphthalazin-1(2H)-one hydrochloride] | > 10 µM
COc1cc2c(Cc3ccc(N)cc3)nn(C)c(=O)c2cc1OC [Example 161, 4-(4-aminobenzyl)-6,7-dimethoxy-2-methylphthalazin-1(2H)-one hydrochloride] | > 10 µM
CNc1ccc(Cc2n[nH]c(=O)c3ccccc23)cc1 [Example 162, 4-(4-(methylamino)benzyl)phthalazin-1(2H)-one hydrochloride] | > 10 µM
CNc1ccc(Cc2n[nH]c(=O)c3cc(OC)c(OC)cc23)cc1 [Example 163, 6,7-dimethoxy-4-(4-(methylamino)benzyl)phthalazin-1(2H) -one hydrochloride] | > 10 µM
CNc1ccc(Cc2nn(C)c(=O)c3cc(OC)c(OC)cc23)cc1 [Example 164, 6,7-dimethoxy-2-methyl-4-(4-(methylamino)benzyl)phthalazin-1(2H)-one hydrochloride] | > 10 µM
COc1cc2c(Cc3ccc4c(c3)CCN4)n[nH]c(=O)c2cc1OC [Example 165, 4-(indolin-5-yl-methyl)-6,7-dimethoxyphthalazin-1(2H)-one hydrochloride] | > 10 µM
COc1cc2c(Cc3ccc4c(c3)CCN4)nn(C)c(=O)c2cc1OC [Example 166, 4-(indolin-5-yl-methyl)-6,7-dimethoxy-2-methylphthalazin-1(2H)-one hydrochloride] | > 10 µM
COc1cc2c(Cc3cccc(NS(=O)(=O)NC(=O)OC(C)(C)C)c3)n[nH]c(=O)c2cc1OC [Example 167, tert-butyl (N-(3-((6,7-dimethoxy-4-oxo-3,4-dihydrophthalazin-1-yl)methyl)phenyl)sulfamoyl)carbamate] | > 10 µM
COc1cc2c(Cc3cccc(NS(=O)(=O)NC(=O)OC(C)(C)C)c3)nn(C)c(=O)c2cc1OC [Example 168, tert-butyl (N-(3-((6,7-dimethoxy-3-methyl-4-oxo-3,4-dihydrophthalazin-1-yl)methyl)phenyl)sulfamoyl)carbamate] | > 10 µM
CC(C)(C)OC(=O)NS(=O)(=O)Nc1ccc(Cc2n[nH]c(=O)c3ccccc23)cc1 [Example 169, tert-butyl (N-(4-((4-oxo-3,4-dihydrophthalazin-1-yl)methyl)phenyl)sulfamoyl)carbamate] | 1 to 10 µM
Cn1nc(Cc2ccc(NS(=O)(=O)NC(=O)OC(C)(C)C)cc2)c2ccccc2c1=O [Example 170, tert-butyl (N-(4-((3-methyl-4-oxo-3,4-dihydrophthalazin-1-yl)methyl)phenyl)sulfamoyl)carbamate] | > 10 µM

SMILES | IC50
COc1cc2c(Cc3ccc(NS(=O)(=O)NC(=O)OC(C)(C)C)cc3)n[nH]c(=O)c2cc1OC [Example 171, tert-butyl (N-(4-((6,7-dimethoxy-4-oxo-3,4-dihydrophthalazin-1-yl)methyl)phenyl)sulfamoyl)carbamate] | > 10 µM
COc1cc2c(Cc3ccc(NS(=O)(=O)NC(=O)OC(C)(C)C)cc3)nn(C)c(=O)c2cc1OC [Example 172, tert-butyl (N-(4-((6,7-dimethoxy-3-methyl-4-oxo-3,4-dihydrophthalazin-1-yl)methyl)phenyl)sulfamoyl)carbamate] | 1 to 10 µM
CN(c1ccc(Cc2n[nH]c(=O)c3ccccc23)cc1)S(=O)(=O)NC(=O)OC(C)(C)C [Example 173, tert-butyl N-methyl-N-(4-((4-oxo-3,4-dihydrophthalazin-1-yl)methyl)phenyl)sulfamoyl carbamate] | > 10 µM
COc1cc2c(Cc3ccc(N(C)S(=O)(=O)NC(=O)OC(C)(C)C)cc3)n[nH]c(=O)c2cc1OC [Example 174, tert-butyl N-(4-((6,7-dimethoxy-4-oxo-3,4-dihydrophthalazin-1-yl)methyl)phenyl)-N-methylsulfamoyl carbamate] | > 10 µM
COc1cc2c(Cc3ccc4c(c3)CCN4S(=O)(=O)NC(=O)OC(C)(C)C)n[nH]c(=O)c2cc1OC [Example 176, tert-butyl (5-((6,7-dimethoxy-4-oxo-3,4-dihydrophthalazin-1-yl)methyl)indolin-1-yl)sulfonyl carbamate] | > 10 µM
COc1cc2c(Cc3ccc4c(c3)CCN4S(=O)(=O)NC(=O)OC(C)(C)C)nn(C)c(=O)c2cc1OC [Example 177, tert-butyl (5-((6,7-dimethoxy-3-methyl-4-oxo-3,4-dihydrophthalazin-1-yl)methyl)indolin-1-yl)sulfonyl carbamate] | > 10 µM
COc1cc2c(Cc3cccc(NS(N)(=O)=O)c3)n[nH]c(=O)c2cc1OC [Example 178, (N-(3-((6,7-dimethoxy-4-oxo-3,4-dihydrophthalazin-1-yl)methyl)phenyl)sulfamide hydrochloride] | > 10 µM
COc1cc2c(Cc3cccc(NS(N)(=O)=O)c3)nn(C)c(=O)c2cc1OC [Example 179, N-(3-((6,7-dimethoxy-3-methyl-4-oxo-3,4-dihydrophthalazin-1-yl)methyl)phenyl)sulfamide hydrochloride] | > 10 µM
NS(=O)(=O)Nc1ccc(Cc2n[nH]c(=O)c3ccccc23)cc1 [Example 180, N-(4-((4-oxo-3,4-dihydrophthalazin-1-yl)methyl)phenyl)sulfamide hydrochloride] | < 1 µM
Cn1nc(Cc2ccc(NS(N)(=O)=O)cc2)c2ccccc2c1=O [Example 181, N-(4-((3-methyl-4-oxo-3,4-dihydrophthalazin-1-yl)methyl)phenyl)sulfamide hydrochloride] | < 1 µM
COc1cc2c(Cc3ccc(NS(N)(=O)=O)cc3)n[nH]c(=O)c2cc1OC [Example 182, N-(4-((6,7-dimethoxy-4-oxo-3,4-dihydrophthalazin-1-yl)methyl)phenyl)sulfamide hydrochloride] | < 1 µM
COc1cc2c(Cc3ccc(NS(N)(=O)=O)cc3)nn(C)c(=O)c2cc1OC [Example 183, N-(4-((6,7-dimethoxy-3-methyl-4-oxo-3,4-dihydrophthalazin-1-yl)methyl)phenyl)sulfamide hydrochloride] | < 1 µM
CN(c1ccc(Cc2n[nH]c(=O)c3ccccc23)cc1)S(N)(=O)=O [Example 184, N-methyl-N-(4-((4-oxo-3,4-dihydrophthalazin-1-yl)methyl)phenyl)sulfamide hydrochloride] | 1 to 10 µM
COc1cc2c(Cc3ccc(N(C)S(N)(=O)=O)cc3)n[nH]c(=O)c2cc1OC [Example 185, N-(4-((6,7-dimethoxy-4-oxo-3,4-dihydrophthalazin-1-yl)methyl)phenyl)-N-methylsulfamide hydrochloride] | < 1 µM
COc1cc2c(Cc3ccc(N(C)S(N)(=O)=O)cc3)nn(C)c(=O)c2cc1OC [Example 186, N-(4-((6,7-dimethoxy-3-methyl-4-oxo-3,4-dihydrophthalazin-1-yl)methyl)phenyl)-N-methylsulfamide hydrochloride] | < 1 µM
COc1cc2c(Cc3ccc4c(c3)CCN4S(N)(=O)=O)n[nH]c(=O)c2cc1OC [Example 187, 5-((6,7-dimethoxy-4-oxo-3,4-dihydrophthalazin-1-yl)methyl)indoline-1-sulfonamide hydrochloride] | < 1 µM
